# Tested on: chronic pressure overload (TAC) induced heart failure in WT and Sirt3Ko mice
# Assay: Transthoracic echocardiography after transverse aortic constriction (TAC) or sham surgery
# Format: in vivo, mouse
# Conditions: for EF / FS / IVS; s / LV Mass / LV Mass (corr.) / LV Vol; d / LV Vol; s / LVID; d / LVID; s / LVPW; d / LVPW; s: NR; for IVS; d: NR 500 mg/kg body weight daily for eight weeks
# Text: The present disclosure provides boosting intracellular NAD^+ with nicotinamide riboside chloride (NR) to protect Sirtuin 3 (Sirt3) knockout mice from heart failure. NR is a natural NAD precursor that bypasses nicotinamide phosphoribosyltransferase (NAMPT) to stimulate intracellular NAD^+ synthesis via the Nrk reaction (Bieganowski and Brenner, 2004; Canto et al., 2012; Diguet et al., 2018; Trammell et al., 2016). […] Immunoblotting confirmed the absence of Sirt3 and increased lysine acetylation in mitochondrial extracts from the knockout hearts (FIG. 9A). Pressure overload was induced by transverse aortic constriction (TAC) surgery for 12 weeks. Intracellular NAD^+ level was increased when mice had already developed cardiac hypertrophy and dysfunction, to model a therapeutic approach (FIG. 1A). After 4 weeks of chronic pressure overload, cardiac function was assessed using trans-thoracic M-mode echocardiography.
# Mice randomly received either NR (500 mg/kg body weight) (Canto et al., 2012) or vehicle saline daily for eight-weeks. Representative M-mode images for the echocardiography can be found in FIGS. 1C and 1D. Four weeks of chronic pressure overload caused similar declines in left ventricular fractional shortening (FS %) in mice randomized to NR or vehicle groups for either WT or Sirt3Ko (FIGS. 1E and 1F). […] Similar to NR treated WT, cardiac hypertrophy, left ventricular cavity dilation, and lung edema were less severe in Sirt3Ko TAO mice that received NR treatment (FIGS. 1B-1J). All echocardiography parameters can be found in Table 1 below.
# All procedures involving animal use were approved by the Institutional Animal Care and Use Committee (IACUC) of the University of Washington. Wild-type mice (129S1/SvlmJ Stock No: 002448) and Sirtuin 3 knockout mice (129-Sirt3tm1.1Fwa/J Stock No: 012755) were purchased from Jackson Laboratories. All mice were housed at 22° C. with a 12-hr light, 12-hr dark cycle with free access to water and standard chow. Male mice were used for experiments in this study.
# Transverse aortic constriction. Male mice (3-4 months old) underwent transverse aortic constriction (TAC) or sham surgery. Briefly, mice were anesthetized with an IP injection of 130 mg/kg ketamine and 8.8 mg/kg xylazine in saline. Mice were intubated with 20 G cannula and ventilated 140 breaths per minute by small animal TOPO ventilator (Kent Scientific). The aortic arch was exposed via a left thoracotomy and by carefully separating the thymus. A constriction of the transverse aorta was generated by tying a 6-0 Ethilon ligature against a 27-gauge blunt needle around the aorta between the brachiocephalic and left common carotid arteries. Promptly the needle was removed and the chest and skin were closed by 5-0 polypropylene suture. The animal was removed from ventilation and kept on a heating blanket during recovery from anesthesia. SR buprenorphine (0.05 mg/kg) was administered subcutaneously for analgesia. Sham operated mice underwent all the same procedures as TAC mice excluding the constriction of the aorta. All mice were monitored every 12 h during the first 72 h post-surgery, followed by daily visits over the next 4 weeks.
# Transthoracic Echocardiography. Echocardiography of hearts was performed at indicated time after surgery using the VEVO 2100 high-frequency, high-resolution digital imaging system (VisualSonics) equipped with a MS400 Microscan Transducer on anesthetized mice (0.5%-2% isoflurane in 95% oxygen). Measurements were made when heart rate was >450 bpm. Cardiac function and geometry measurements were measured in parasternal short axis view. M-mode images were used for analysis and calculated by the average of at least three cardiac cycles and carried out in a blind fashion. Hearts were harvested at 12-week post-surgery for subsequent experiments and biochemical assays.
smiles,measurement,setting,value
"NC(=O)c1ccc[n+]([C@@H]2O[C@H](CO)[C@@H](O)[C@H]2O)c1 [NR, Nicotinamide riboside chloride]",Left ventricular cavity dilation,"Sirt3Ko TAC mice, similar to NR treated WT",less severe
same,Advances of heart failure,"Sirt3Ko TAC mice, vs vehicle treatment",protected the Sirt3Ko TAO mice from advances of heart failure
same,EF,"Sirt3Ko, Sham",71.3%
same,FS,"Sirt3Ko, Sham",39.7%
same,IVS; s,"Sirt3Ko, Sham",1.49 mm
same,LV Mass,"Sirt3Ko, Sham",146.9 mg
same,LV Mass (corr.),"Sirt3Ko, Sham",117.5 mg
same,LV Vol; d,"Sirt3Ko, Sham",42.0 µL
same,LV Vol; s,"Sirt3Ko, Sham",12.1 µL
same,LVID; d,"Sirt3Ko, Sham",3.21 mm
same,LVID; s,"Sirt3Ko, Sham",1.94 mm
same,LVPW; d,"Sirt3Ko, Sham",1.30 mm
same,LVPW; s,"Sirt3Ko, Sham",1.69 mm
same,IVS; d,"Sirt3Ko, Sham",1.04 mm
same,EF,"Sirt3Ko, TAC",59.2%
same,FS,"Sirt3Ko, TAC",30.9%
same,IVS; s,"Sirt3Ko, TAC",1.67 mm
same,LV Mass,"Sirt3Ko, TAC",168.9 mg
same,LV Mass (corr.),"Sirt3Ko, TAC",135.1 mg
same,LV Vol; d,"Sirt3Ko, TAC",47.8 µL
same,LV Vol; s,"Sirt3Ko, TAC",19.8 µL
same,LVID; d,"Sirt3Ko, TAC",3.39 mm
same,LVID; s,"Sirt3Ko, TAC",2.35 mm
same,LVPW; d,"Sirt3Ko, TAC",1.22 mm
same,LVPW; s,"Sirt3Ko, TAC",1.51 mm
same,IVS; d,"Sirt3Ko, TAC",1.22 mm
same,Fractional shortening (FS %),"WT TAC mice, 8-week treatment",preserved FS %
same,EF,"Wildtype, Sham",78.9%
same,FS,"Wildtype, Sham",46.3%
same,IVS; s,"Wildtype, Sham",1.72 mm
same,LV Mass,"Wildtype, Sham",141.9 mg
same,LV Mass (corr.),"Wildtype, Sham",113.5 mg
same,LV Vol; d,"Wildtype, Sham",37.3 µL
same,LV Vol; s,"Wildtype, Sham",7.9 µL
same,LVID; d,"Wildtype, Sham",3.07 mm
same,LVID; s,"Wildtype, Sham",1.65 mm
same,LVPW; d,"Wildtype, Sham",1.27 mm
same,LVPW; s,"Wildtype, Sham",1.64 mm
same,IVS; d,"Wildtype, Sham",1.12 mm
same,EF,"Wildtype, TAC",62.5%
same,FS,"Wildtype, TAC",32.7%
same,IVS; s,"Wildtype, TAC",1.78 mm
same,LV Mass,"Wildtype, TAC",183.9 mg
same,LV Mass (corr.),"Wildtype, TAC",147.1 mg
same,LV Vol; d,"Wildtype, TAC",36.7 µL
same,LV Vol; s,"Wildtype, TAC",13.7 µL
same,LVID; d,"Wildtype, TAC",3.04 mm
same,LVID; s,"Wildtype, TAC",2.04 mm
same,LVPW; d,"Wildtype, TAC",1.52 mm
same,LVPW; s,"Wildtype, TAC",1.85 mm
same,IVS; d,"Wildtype, TAC",1.30 mm
